Reference: patent publication US20220348590A1, “CYCLOOXYGENASE-2 INHIBITORS AND USES THEREOF” (The Board Institute, Inc., priority 2019, published 2022)
Like-named read-outs stand apart in the source and are kept apart here.

Molecular target: T1, human recombinant COX2 (hCOX2) (UniProt P35354)
T1 sequence (P35354 1-604): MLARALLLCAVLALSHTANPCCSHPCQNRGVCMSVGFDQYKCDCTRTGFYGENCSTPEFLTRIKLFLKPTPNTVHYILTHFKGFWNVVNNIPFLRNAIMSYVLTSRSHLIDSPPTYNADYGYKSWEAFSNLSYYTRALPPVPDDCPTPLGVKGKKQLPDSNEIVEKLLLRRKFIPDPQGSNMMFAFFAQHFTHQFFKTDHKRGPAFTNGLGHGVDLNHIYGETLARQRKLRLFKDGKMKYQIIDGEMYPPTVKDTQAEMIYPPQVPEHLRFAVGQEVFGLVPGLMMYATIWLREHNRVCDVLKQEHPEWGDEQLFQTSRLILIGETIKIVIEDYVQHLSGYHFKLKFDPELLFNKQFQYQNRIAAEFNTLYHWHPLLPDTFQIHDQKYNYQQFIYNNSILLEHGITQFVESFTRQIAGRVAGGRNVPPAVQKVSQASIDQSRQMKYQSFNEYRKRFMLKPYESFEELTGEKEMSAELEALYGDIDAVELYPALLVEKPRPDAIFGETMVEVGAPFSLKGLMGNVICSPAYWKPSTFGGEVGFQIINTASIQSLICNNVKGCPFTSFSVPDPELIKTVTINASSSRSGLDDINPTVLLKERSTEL
Test: LCMS-based COX2 enzymatic inhibition assay (PGE2 quantification)
Assay type: biochemical
Parameters: COX2 2 minutes pge2/pge2d4 area ratio Avg; other: 2 minutes; readout pge2/pge2d4 area ratio; average; COX2 2 minutes pge2/pge2d4 area ratio Avg; LLE; average LLE; COX2 2 minutes pge2 area (counts) Avg; readout pge2 area (counts); other: 2 min; "ovine COX2 (oCOX2), human recombinant COX2 (hCOX2)"
Settings: for IC50: average
Method: We have adapted a previously reported cyclooxygenase enzymatic assay utilizing LCMS quantification of PGE2 as the product of COX-1 and COX2 catalyzed conversion of arachidonic acid to evaluate the binding properties of newly synthesized ligands [Cao, 2011]. These optimized and miniaturized (384-well plates) LCMS-based COX-1 and COX2 enzymatic assays enabled us to quickly evaluate newly synthesized ligands for COX2 binding affinity and selectivity vs COX-1. Using a shorter ligand-enzyme incubation time in the LCMS assay (2 minutes vs 10 minutes) also permitted us to prioritize ligands with faster binding kinetics. Considering the relatively slow on-rate kinetics of known coxibs, due to their 3-step binding mechanism [Marnett, 2009], we believe that optimizing this critical parameter will be key to the successful development of a COX2 PET tracer. Using these enzymatic assays, we have evaluated>200 newly synthesized ligands against COX2 and >20 ligands against COX-1. Another critical property necessary for a good PET radiotracer is to have low non-specific binding (NSB) to increase the free fraction and maximize the signal to noise ratio. This property can be evaluated using in-vitro protein binding assays, and we have now evaluated>50 newly synthesized ligands in mouse, rat and human plasma protein binding (PPB) assays as well as >15 ligands in a mouse brain protein binding (BPB) assay.
Ovine COX-1 (oCOX-1), ovine COX2 (oCOX2), human recombinant COX2 (hCOX2), arachidonic acid, PGE2, d4-PGD2, and […] (labeled with deuterium atoms at positions 3 and 4) were purchased from Cayman Chemicals (Ann Arbor, Mich.). The cofactors (−)epinephrine and hematin, and the COX inhibitors indomethacin, resveratrol and diclofenac were purchased from Sigma-Aldrich (St. Louis, Mo.). Celecoxib was purchased from 3B PharmaChem International (Wuhan, China). All organic solvents were HPLC grade or better and were purchased from Thermo Fisher (Hanover Park, Ill.). Formic acid was purchased from EMD Chemicals (San Diego, Calif.). Purified water was prepared by using a Millipore Milli-Q purification system (Millipore, Billerica, Mass.). All other chemicals and solvents were ACS reagent grade, unless stated otherwise.
In an Eppendorf tube, 146 μL of 100 mM Tris.HCl (pH 8.0) buffer, 2 μL of 100 μM hematin (co-factor) and 10 μL of 40 mM L-epinephrine (co-factor) were mixed at room temperature. Next, 20 μL of Tris.HCl (pH 8.0) buffer containing 0.2 μg COX2 or 0.1 μg COX-1 (approximately 1 unit of enzyme; 1 unit COX utilizes 1 nmol 02/mg/min at 37° C.) was added, and the solution was incubated at room temperature for 2 min. A 2 μL aliquot of the COX inhibitor in DMSO was added to the enzyme solution and preincubated at 37° C. for 10 min. Negative controls were identical except that 2 μL aliquots of DMSO without inhibitor were used instead.
Each COX reaction was initiated by adding 20 μL of arachidonic acid in Tris.HCl (pH 8.0) buffer to give a final concentration of 5 μM; and the reaction was terminated after 2 min by adding 20 μL of 2.0 M HCl. The surrogate standards d4-PGE2 and d4-PGD2 (10 μL aliquot of 50 ng/mL solution in methanol) were added to correct for errors or degradation during sample handling and for variation in injection volume or instrument response during LC-MS-MS. After 30 min, PGE2, PGD2 and their surrogate standards were extracted from each incubation mixture using 800 μL hexane/ethyl acetate (50:50, v/v). The organic phase was removed, evaporated to dryness, and reconstituted in 100 μL methanol/water (50:50, v/v) for analysis using LC-MS-MS.
The concentration of PGE2 in each sample was measured using LC-MS-MS, and the percent of COX inhibition by each test solution was determined by comparing the amount of PGE2 produced in the experiment with that produced in the negative control incubation. The formation of PGD2 was measured for quality control purposes, since the levels of PGD2 should be proportional to those of PGE2. […]

[1] = 2 minutes, readout pge2/pge2d4 area ratio, read-out: COX2 2 minutes pge2/pge2d4 area ratio Avg. IC50
[2] = 2 minutes, readout pge2 area (counts), read-out: COX2 2 minutes pge2 area (counts) Avg. IC50
[3] = 2 minutes, readout pge2/pge2d4 area ratio, average LLE
[4] = 2 minutes, readout pge2 area (counts), average LLE

Compound | IC50 [1] [nM] | IC50 [2] [nM] | COX2 2 minutes pge2/pge2d4 area ratio Avg. LLE [3] | COX2 2 minutes pge2 area (counts) Avg. LLE [4] | COX2 10 minutes pge2 area (counts) Avg. LLE (10 minutes, readout pge2 area (counts), average LLE) | IC50 (10 minutes, readout pge2 area (counts), read-out: COX2 10 minutes pge2 area (counts) Avg. IC50) [nM]
COc1ncc(NCc2sccc2C)nc1-c1ccc(S(C)(=O)=O)cc1 [Compound 62] | 34.5 | 40.5 | 4.781 | 4.654 |  | 
CS(=O)(=O)c1ccc(-c2coc3ccc(NCc4ccco4)nc23)cc1 [Compound 68] | 40.2 | 41 |  |  |  | 
CS(=O)(=O)c1ccc(-c2cccc(OCc3ccc(Cl)s3)n2)cc1 [Compound 69] | 40.6 | 28.8 | 2.722 | 2.834 |  | 
CS(=O)(=O)c1ccc(-c2cccc(Oc3ccccc3)n2)cc1 [Compound 70] | 40.6 | 46.5 |  |  |  | 
COc1ncc(OCc2ccco2)nc1-c1ccc(S(C)(=O)=O)cc1 [Compound 81] | 55.9 | 41 | 5.231 | 5.428 |  | 
CS(=O)(=O)c1ccc(-c2cnc(N)c(OCc3cccs3)n2)cc1 [Compound 86] | 61 | 68.2 | 5.134 | 5.087 |  | 
CS(=O)(=O)c1ccc(-c2cccc(OCc3ccc(F)cc3)n2)cc1 [Compound 95] | 71.1 | 91 | 3.43 | 3.477 |  | 
CS(=O)(=O)c1ccc(-c2nc(OCc3cccs3)ccc2F)cc1 [Compound 101] | 86.7 | 77.2 | 3.357 | 3.332 |  | 
COc1ncc(NCc2ccns2)nc1-c1ccc(S(C)(=O)=O)cc1 [Compound 102] | 87.5 | 103 | 5.647 | 5.572 |  | 
CS(=O)(=O)c1ccc(-c2cncc(NCc3ccsc3)n2)cc1 [Compound 104] | 91.1 | 74.1 | 4.901 | 4.97 |  | 
COc1ncc(NCc2nccs2)nc1-c1ccc(S(C)(=O)=O)cc1 [Compound 107] | 93.3 | 88.1 | 4.932 | 4.948 |  | 
Cn1ccc(CNc2cccc(-c3ccc(S(C)(=O)=O)cc3)n2)c1 [Compound 108] | 94.5 | 79.9 | 3.847 | 3.926 |  | 
C[C@H](Nc1cncc(-c2ccc(S(C)(=O)=O)cc2)n1)c1cccs1 [Compound 109] | 98.2 | 79.3 | 4.384 | 4.487 | 5.297 | 13.2
CS(=O)(=O)c1ccc(-c2cncc(NCc3ccoc3)n2)cc1 [Compound 110] | 98.4 | 93.4 | 5.411 | 5.451 |  | 
CS(=O)(=O)c1ccc(-c2cnc3ccn(Cc4cccs4)c3c2)cc1 [Compound 111] | 99.1 | 113 | 2.294 | 2.242 |  | 
CS(=O)(=O)c1ccc(-c2cccc(NCc3ccoc3)n2)cn1 [Compound 113] | 103 | 122 | 4.956 | 4.897 |  | 

Now from value to molecule:

IC50 [1] [nM] | IC50 [2] [nM] | COX2 2 minutes pge2/pge2d4 area ratio Avg. LLE [3] | COX2 2 minutes pge2 area (counts) Avg. LLE [4] | COX2 10 minutes pge2 area (counts) Avg. LLE (10 minutes, readout pge2 area (counts), average LLE) | IC50 (10 minutes, readout pge2 area (counts), read-out: COX2 10 minutes pge2 area (counts) Avg. IC50) [nM] | Compound
30.5 | 32.9 |  |  |  |  | CS(=O)(=O)c1ccc(-n2ccc3ccc(Cc4cccs4)nc32)cc1 [Compound 56]
45.4 | 62.3 | 3.984 | 3.887 |  |  | CC(C)Oc1ncc(NCc2cccs2)nc1-c1ccc(S(C)(=O)=O)cc1 [Compound 75]
50.6 | 59.6 | 4.192 | 4.109 |  |  | CS(=O)(=O)c1ccc(-c2cncc(NCc3cccs3)c2)cc1 [Compound 79]
67.1 | 942 | 5.442 | 4.51 |  |  | CS(=O)(=O)c1ccc(-c2nc(NCc3cccs3)cnc2N)cc1 [Compound 90]
68.6 | 58.4 |  |  |  |  | CS(=O)(=O)c1ccc(-n2ncc3ccc(NCc4cccs4)nc32)cc1 [Compound 92]
75.7 | 58.1 | 4.517 | 4.626 |  |  | CS(=O)(=O)c1ccc(-c2cnc(F)c(NCc3cccs3)n2)cc1 [Compound 97]
83.9 | 106 | 3.645 | 3.594 |  |  | COCc1ccc(NCc2cccs2)nc1-c1ccc(S(C)(=O)=O)cc1 [Compound 100]
88.8 | 73.3 | 4.751 | 4.838 |  |  | Cc1ncc(NCc2cccs2)nc1-c1ccc(S(C)(=O)=O)cc1 [Compound 103]
91.5 | 105 | 3.99 | 3.918 |  |  | CS(=O)(=O)c1ccc(-c2cccc(NCc3nccs3)n2)cc1 [Compound 105]
91.6 | 66.5 | 5.5926 | 5.699 |  |  | NS(=O)(=O)c1ccc(-c2cncc(NCc3cccs3)n2)cc1 [Compound 106]
104 | 131 | 5.0904 | 5.034 |  |  | CS(=O)(=O)c1ccc(-c2cnnc(NCc3cccs3)n2)cc1 [Compound 114]
